Experimental data as given in the NIST ThermoML archive (doi:10.1021/je2002368).

Assays:
[1] = refractive index (Na D-line) (dimensionless); settings: 101.33 kPa, Liquid, Standard Abbe refractometry
[2] = 101.33 kPa, Liquid; for viscosity: Concentric cylinders viscometry; for mass density: Vibrating tube method

CCn1cc[n+](C)c1.NCC(=O)[O-] [1-ethyl-3-methylimidazolium ammonioacetate]
Settings	mass density, [2] [kg/m3]	refractive index, [1]	viscosity, [2] [mPa·s]
293.15 K	1158	1.50628	80.37
298.15 K	1154.7	1.50473	61.51
303.15 K	1151.6	1.50313	47.75
308.15 K	1148.5	1.50154	37.79
313.15 K	1145.3	1.49988	30.31
318.15 K	1142.2	1.49827	24.89
323.15 K	1139	1.49657	20.64
328.15 K	1135.8	1.49488	17.33
333.15 K	1132.7	1.49321	14.72
338.15 K	1129.5	–	12.64
343.15 K	1126.3	–	10.94
348.15 K	1123.2	–	9.55
353.15 K	1120.1	–	8.38

CCn1cc[n+](C)c1.C[C@H](N)C(=O)[O-] [1-ethyl-3-methylimidazolium L-alaninate]
Settings	mass density, [2] [kg/m3]	refractive index, [1]	viscosity, [2] [mPa·s]
293.15 K	1139.2	1.50586	235.36
298.15 K	1136.1	1.5041	171.19
303.15 K	1133	1.50246	126.6
308.15 K	1129.8	1.50072	93.87
313.15 K	1126.6	1.49908	72.02
318.15 K	1123.5	1.49735	56.62
323.15 K	1120.3	1.49568	45.13
328.15 K	1117.2	1.49395	36.56
333.15 K	1114	1.49228	30.1
338.15 K	1110.9	–	25.02
343.15 K	1107.8	–	21.21
348.15 K	1104.7	–	18.05
353.15 K	1101.6	–	15.51

CCn1cc[n+](C)c1.O=C([O-])[C@@H]1CCCN1 [1-ethyl-3-methyl-1H-imidazolium L-prolinate]
Settings	mass density, [2] [kg/m3]	refractive index, [1]	viscosity, [2] [mPa·s]
293.15 K	1158.14	1.51523	626.95
298.15 K	1155.08	1.51372	426.12
303.15 K	1152	1.51229	295.17
308.15 K	1148.9	1.51073	210.2
313.15 K	1145.78	1.50924	153.57
318.15 K	1142.64	1.50774	114.27
323.15 K	1139.5	1.50621	87.05
328.15 K	1136.36	1.50454	67.61
333.15 K	1133.22	1.5031	54.04
338.15 K	1130.08	–	43.43
343.15 K	1126.93	–	35.47
348.15 K	1123.79	–	29.36
353.15 K	1120.63	–	24.5

CC[n+]1ccn(C)c1.N[C@@H](CO)C(=O)[O-] [3-ethyl-1-methyl-1H-imidazolium L-serinate]
Settings	mass density, [2] [kg/m3]	refractive index, [1]	viscosity, [2] [mPa·s]
293.15 K	1198.3	1.51205	611.87
298.15 K	1195.2	1.51069	410.86
303.15 K	1191.9	1.50932	279.82
308.15 K	1188.6	1.50791	196.7
313.15 K	1185.2	1.50654	142.28
318.15 K	1182	1.50511	105.8
323.15 K	1178.9	1.50372	80.49
328.15 K	1175.8	1.50224	62.48
333.15 K	1172.6	1.50083	49.31
338.15 K	1169.5	–	39.63
343.15 K	1166.3	–	32.36
348.15 K	1162.9	–	26.82
353.15 K	1159.8	–	22.47
